Laboratory results taken from ChEMBL document CHEMBL1201862, “PubChem BioAssay data set” (2004).
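Each compound was tested at five concentrations against cells in 96-well plates for 48 hours. GI50 = concentration required for 50% inhibition of growth.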 The source made the active and inactive calls. No stated cut-off is given here; in the data, active = GI50 up to about 1.1 µM and inactive = higher.

How the values were obtained:
Assay in all cases: growth of human tumour cells (NCI), 48 h
M14 = test system: M14
HT-29 = test system: HT-29
TK-10 = test system: TK-10
MDA-MB-435 = test system: MDA-MB-435
MDA-N = test system: MDA-N
NCI-H226 = test system: NCI-H226
SK-MEL-2 = test system: SK-MEL-2
SW-620 = test system: SW-620
SF-539 = test system: SF-539
HCT-15 = test system: HCT-15
MOLT-4 = test system: MOLT-4
UO-31 = test system: UO-31
DU-145 = test system: DU-145
MCF7 = test system: MCF7
HOP-62 = test system: HOP-62
ACHN = test system: ACHN
SNB-75 = test system: SNB-75
NCI-H460 = test system: NCI-H460
Hs-578T = test system: Hs-578T
KM-20L2 = test system: KM-20L2

Structure (SMILES)	GI50 (M14)	GI50 (HT-29)	GI50 (TK-10)	GI50 (MDA-MB-435)	GI50 (MDA-N)	GI50 (NCI-H226)	GI50 (SK-MEL-2)	GI50 (SW-620)	GI50 (SF-539)	GI50 (HCT-15) [µM]	GI50 (MOLT-4)	GI50 (UO-31)	GI50 (DU-145)	GI50 (MCF7)	GI50 (HOP-62)	GI50 (ACHN)	GI50 (SNB-75)	GI50 (NCI-H460)	GI50 (Hs-578T)	GI50 (KM-20L2)
O=C1c2ccccc2-c2c1c1ccccc1c(=O)n2CCO	> 100 µM (inactive)	7.14 µM (inactive)	> 50.5 µM (inactive)	> 72.9 µM (inactive)	51.8 µM (inactive)	6.84 µM (inactive)	39.6 µM (inactive)	7.29 µM (inactive)	10.6 µM (inactive)	5.83	2.14 µM (inactive)	4.06 µM (inactive)	13.5 µM (inactive)	4.41 µM (inactive)	5.4 µM (inactive)	2.17 µM (inactive)	25.4 µM (inactive)	1.82 µM (inactive)	29.8 µM (inactive)	
COc1ccc2c(c1)CCc1c(-c3noc4c3CCc3cc(OC)ccc3-4)noc1-2	> 100 µM (inactive)	> 100 µM (inactive)	> 100 µM (inactive)	> 100 µM (inactive)	> 100 µM (inactive)	> 100 µM (inactive)	> 100 µM (inactive)	> 100 µM (inactive)	> 100 µM (inactive)	> 100	> 100 µM (inactive)	> 100 µM (inactive)	> 100 µM (inactive)	> 100 µM (inactive)	> 100 µM (inactive)	> 100 µM (inactive)	> 100 µM (inactive)	> 100 µM (inactive)	> 100 µM (inactive)	
Cc1ncc(CCl)c2c1OC(C)(C)OC2	36.4 µM (inactive)	52.2 µM (inactive)	> 100 µM (inactive)			> 100 µM (inactive)	> 100 µM (inactive)	18.7 µM (inactive)	33.6 µM (inactive)		42.5 µM (inactive)	> 100 µM (inactive)			> 100 µM (inactive)	21.3 µM (inactive)		> 100 µM (inactive)		> 100 µM (inactive)
O=C(O)c1ccccc1/C=C1/Nc2ccccc2C1=O	> 100 µM (inactive)	67.9 µM (inactive)	> 100 µM (inactive)	> 100 µM (inactive)	> 100 µM (inactive)	> 100 µM (inactive)	> 100 µM (inactive)	57.5 µM (inactive)	92.9 µM (inactive)	41.5	91.4 µM (inactive)	50 µM (inactive)	> 100 µM (inactive)	48.8 µM (inactive)	> 100 µM (inactive)	57.3 µM (inactive)	> 100 µM (inactive)	32.9 µM (inactive)	62.5 µM (inactive)	
CC(C)=CCC/C(C)=C/Cc1c(O)ccc2c1[nH]c1cc(O)c(C)cc12	11.8 µM (inactive)	> 25 µM (inactive)	> 25 µM (inactive)			15.6 µM (inactive)	> 25 µM (inactive)	13.9 µM (inactive)	6.95 µM (inactive)	9.71	6.07 µM (inactive)	7.73 µM (inactive)			7.62 µM (inactive)	8.85 µM (inactive)		11.9 µM (inactive)		13.4 µM (inactive)
Cc1cc(NS(=O)(=O)c2ccc(NC(=O)c3cccn4c(=O)c5ccccc5nc34)cc2)no1	> 100 µM (inactive)	> 100 µM (inactive)	> 100 µM (inactive)			> 100 µM (inactive)		> 100 µM (inactive)	> 100 µM (inactive)		> 100 µM (inactive)	> 100 µM (inactive)			> 100 µM (inactive)	> 100 µM (inactive)	> 100 µM (inactive)	> 100 µM (inactive)		> 100 µM (inactive)
O=C(Nc1ccccc1)c1cc(S(=O)(=O)Nc2nc3cccnc3[nH]2)c(SSc2cc(Cl)c(C(=O)Nc3ccccc3)cc2S(=O)(=O)Nc2nc3cccnc3[nH]2)cc1Cl	> 100 µM (inactive)	> 100 µM (inactive)	> 100 µM (inactive)	> 100 µM (inactive)	> 100 µM (inactive)	> 100 µM (inactive)	> 100 µM (inactive)	> 100 µM (inactive)	> 100 µM (inactive)	> 100	> 100 µM (inactive)	> 100 µM (inactive)	> 100 µM (inactive)	> 100 µM (inactive)	> 100 µM (inactive)	> 100 µM (inactive)	> 100 µM (inactive)	> 100 µM (inactive)	> 100 µM (inactive)	
CN(C)CCN(c1ccccn1)c1ccccn1	> 100 µM (inactive)	> 100 µM (inactive)	> 100 µM (inactive)	> 100 µM (inactive)	> 100 µM (inactive)	> 100 µM (inactive)	> 100 µM (inactive)	> 100 µM (inactive)	> 100 µM (inactive)	> 100	> 100 µM (inactive)	> 100 µM (inactive)	> 100 µM (inactive)	> 100 µM (inactive)	> 100 µM (inactive)	> 100 µM (inactive)	> 100 µM (inactive)	> 100 µM (inactive)	> 100 µM (inactive)	
